Tests used:
[1] = test system: ATF6-UPRE luciferase reporter in A498 and ACHN cells; experiment: ATF6-UPRE luciferase reporter assay; assay type: cell-based; details: EC50 dose
Protocol: A498 and ACHN cells were transiently transfected with p5×ATF6-GL3 UPR luciferase reporter (Addgene plasmid#11976) and pRL-CMV-renilla (Promega) using Lipofectamine 2000 (Invitrogen). Cells were treated as indicated for 24H, prior to collection and analysis using Promega Dual Luciferase assay kit per manufacturer's specifications. Luciferase activity was measured using Veritas Luminometer (Promega); and results are reported as relative luminescence.
(§1) Activating transcription factor 6 (ATF6) is a key regulator of the unfolded protein response (UPR) that recognizes unfolded protein response elements (UPRE) in the promoter regions of several key mediators of the ER stress response, initiating their transcription (Wang Y, Shen J, Arenzana N, Tirasophon W, Kaufman R J, Prywes R. Activation of ATF6 and an ATF6 DNA binding site by the endoplasmic reticulum stress response. J Biol Chem. Sep. 1, 2000; 275(35):27013-27020). A498 and ACHN transfected with an ATF6-UPRE luciferase reporter were treated with the EC50 doses of ChemBL375265, SSI-1, SSI-4, SSI-3, and SSI-2 with or without OA supplementation were evaluated in order to determine whether the identified compounds could recapitulate activation of the UPR. […] Upregulation of the UPR markers BiP (heat shock 70 kDa protein, GRP78) and CHOP (damage inducible transcript 3, DDIT3) was evaluated by Western blot in A498 and ACHN cells treated with the EC50 doses of ChemBL375265, SSI-1, SSI-4, SSI-3, and SSI-2 with or without OA supplementation.

[2] = test system: BiP and CHOP expression in A498 and ACHN cells; experiment: Western blot for UPR markers BiP and CHOP; assay type: cell-based; details: EC50 dose; both cell lines; blocked with concomitant OA treatment
Protocol: (§2) Protein extraction and western blot analysis was performed as previously described (Copland J A, Marlow L A, Kurakata S, et al. Novel high-affinity PPARgamma agonist alone and in combination with paclitaxel inhibits human anaplastic thyroid carcinoma tumor growth via p21WAF1/CIP1. Oncogene. Apr 13 2006; 25(16):2304-2317). Primary antibodies included SCD1 (Sigma-Aldrich, #HPA012107), BiP (Cell Signaling, #3183), CHOP (Cell Signaling, #2895), sXBP1(Santa Cruz Biotechnology, #sc-7160), PARP(Cell Signaling, #9542), and β-actin (Sigma-Aldrich, #A5441).
as §1

[3] = target: T1, SCD1 (Homo sapiens, UniProt O00767); details: known inhibitors; cited from earlier work
T1 sequence (O00767 1-359): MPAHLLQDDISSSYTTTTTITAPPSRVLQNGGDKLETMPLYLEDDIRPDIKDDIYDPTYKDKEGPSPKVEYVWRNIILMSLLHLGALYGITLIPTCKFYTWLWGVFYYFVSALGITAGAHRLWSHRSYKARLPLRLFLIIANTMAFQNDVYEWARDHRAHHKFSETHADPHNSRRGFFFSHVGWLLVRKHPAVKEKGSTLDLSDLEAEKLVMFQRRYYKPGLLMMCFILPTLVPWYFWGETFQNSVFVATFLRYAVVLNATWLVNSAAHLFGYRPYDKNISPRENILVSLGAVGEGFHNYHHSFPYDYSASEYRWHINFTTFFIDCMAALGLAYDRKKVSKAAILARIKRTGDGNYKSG

[4] = test system: A498, ACHN, and Caki1 cell lines; experiment: Oleic acid (OA) rescue assay of cell proliferation in ccRCC cells; assay type: cell-based; details: EC50 dose of compound with OA (5 μg/μL); all three cell lines
Protocol: (§3) Cells were seeded at 5,000 cells/well in clear-bottom 96-well plates in triplicate in Maintenance Media. Drug treatment was applied at a concentration of 1:1000 in reduced serum (3%) Maintenance Media. After 72 hours, cells were washed with PBS, and stored at −80° C. prior to analysis using CyQuant® Proliferation Analysis Kit (Invitrogen) as per manufacturers' protocol for relative fluorescence units. Alternatively, cells were plated 2×10^5/well in 12-well plates (Midwest Scientific) in triplicate prior to drug treatment. After 120 hour treatment, cell number was established using a Coulter Particle Counter (Beckman). Or, cells were plated (0.5 or 1×10^5/well) in 24-well plates (Midwest Scientific), 3×. After 72 hour treatment, cell number established using Coulter Particle Counter (Beckman). Oleic acid-albumin (Sigma Aldrich) was added to media at 5 μM, and was applied adjuvant to drug treatment. Drug stocks were prepared in DMSO (Sigma) at 1000×. EC50 dosing per cell line was calculated using CalcuSyn® analytical software.
A498, ACHN, and Caki1 cell lines were treated with the EC50 dose of each MF-438, ChemBL375265, SSI-1, SSI-4, SSI-3, and SSI-2 with or without concomitant application of OA (5 μg/μL). […] Representative images of A498 cell morphology and density treated with each compound +/−OA are shown in (FIG. 2B).

[5] = test system: HK2, a transformed renal epithelial cell line; experiment: High-throughput proliferative screen, non-cancerous cells; assay type: cell-based
Protocol: as §3
In order to identify potential SCD1 inhibitors, a high-throughput proliferative-based screening method was used, with four ccRCC cell lines including A498, ACHN, Caki1, and Caki2. The SCD1 inhibitor MF-438 was included as a positive control. Known compounds ChemBL375265 (Liu G, Lynch J K, Freeman J, et al. Discovery of potent, selective, orally bioavailable stearoyl-CoA desaturase 1 inhibitors. Journal of medicinal chemistry. Jun. 28, 2007; 50(13): 3086-3100) (SetA.100) and SAR707 (Voss M D, Zoller G, Matter H, et al. Discovery and pharmacological characterization of SAR707 as novel and selective small molecule inhibitor of stearoyl-CoA desaturase (SCD1). European journal of pharmacology. May 5, 2013; 707(1-3): 140-146) (TC03.100) were included as single-blinded positive controls, and are indicated with an asterisk (*). […]

[6] = test system: kidney cancer cells; experiment: Combination with mTor inhibitor temsirolimus, cell proliferation; assay type: cell-based; details: different concentrations with 0, 0.1, 1, and 10 nM temsirolimus
[7] = test system: ATC cells; experiment: Proliferative dose response of thyroid cells; assay type: cell-based; details: THJ29T, THJ16T, and KTC2; 72H
Protocol: as §3
The efficacy of pharmacologic inhibition of this enzyme on tumor cell proliferation after a 72H treatment was determined, using A939572-a commercially available small molecule SCD1 inhibitor (Xin Z, Zhao H, Serby M D, Liu B, Liu M, Szczepankiewicz B G, Nelson L T, Smith H T, Suhar T S, Janis R S, Cao N, Camp H S, Collins C A, Sham H L, Surowy T K, Liu G. Discovery of piperidine-aryl urea-based stearoyl-CoA desaturase 1 inhibitors. Bioorg Med Chem Lett. 2008; 18(15):4298-302). […] Despite conspicuous SCD1 expression in 4 of the 5 FTC cells tested, no response to A939572 was observed (FIG. 10D).
THJ29T, THJ16T, and KTC2 were treated with carfilzomib (FIG. 12A) or bortezomib for 72H in order to establish EC50 values. […] Anti-proliferative drug synergy was evaluated in THJ29T and THJ16T treated with either A939572 or MF-438 in combination with either bortezomib or carfilzomib for 48H. Synergy was assessed using CalcuSyn analytical software, which determines the combination index (CI) based on the Chou-Talalay method where CI values >1 represent an antagonistic effect and values <1 represent synergy, and lower values signify enhanced synergy (Chou T C, Talalay P. Analysis of Combined Drug Effects—a New Look at a Very Old Problem. Trends in Pharmacological Sciences. 1983; 4(11):450-4).

[8] = test system: THJ16T ATC cell xenograft; experiment: THJ16T xenograft model; assay type: in vivo, female athymic nu/nu mice
Protocol: Formalin-fixed, paraffin-embedded subject tissues were mounted on slides, blocked with Diluent (DakoCytomation) for 30 min, and then probed for SCD (Sigma-Aldrich, #HPA012107). IHC scoring was performed as previously described (von Roemeling C A, Marlow L A, Wei J J, et al. Stearoyl-CoA desaturase 1 is a novel molecular therapeutic target for clear cell renal cell carcinoma. Clin Cancer Res. May 1 2013; 19(9):2368-2380). Cases where insufficient tumor tissue presented were excluded. 20× images were obtained using Scanscope XT and Imagescope software.
1×10^6 THJ16T ATC cells were subcutaneously injected in female athymic nu/nu mice (Harlan Laboratories). Treatment was initiated once tumor volumes reached 50-100 mm^3. MF-438 was suspended in 0.5% carboxymethyl-cellulose containing strawberry drink flavoring(0.1 g/mL) in sterilized H2O at 25 mg/kg in a 100 μl dose, and administered via oral gavage once daily. Carfilzomib was solubilized in DMSO (4% of FC), suspended in 100% corn oil at 4 mg/kg per 50 uL dose and administered via intraperitoneal injection twice weekly on consecutive days. Tumor volume(0.5236[L*W*H]) and body weight were measured 2×/week. N=10 mice/group.
MF-438 was tested in combination with carfilzomib in vivo in a THJ16T xenograft model. […] J Clin Endocrinol Metab. 2010; 95(12):5338-47). […] Saline was administered as necessary. These adverse events resolved 24-48 hours after the second administration of carfilzomib. […] However, no other significant adverse events were observed. […] IHC analysis of tumors resected from each treatment group was performed.

[9] = test system: PARP cleavage and CHOP expression in THJ29T and THJ16T; experiment: Western blot for PARP cleavage and CHOP expression, combinatorial therapy; assay type: cell-based; details: EC50 doses, 48H
Protocol: as §2
THJ29T and THJ16T treated for 48H with EC50 doses of either A939572 or MF-438 in combination with either carfilzomib or bortezomib were probed for PARP cleavage and CHOP expression, both markers indicative of apoptosis (FIGS. 14A-B, 15A-B). […] Cell death was additionally examined via flow cytometry using propidium iodide staining. THJ29T and THJ16T were treated for 48H with EC50 doses of either A939572 or MF-438 in combination with either carfilzomib or bortezomib prior to staining and analysis.

[10] = 24H, both cell lines A498 and ACHN, completely blocked with OA

Structure (SMILES): CNC(=O)c1ccc(N2CCC(Oc3ccccc3Cl)CC2)nn1 [ChemBL375265]
- luciferase activity [1, 10]: significant upregulation of luciferase activity
- BiP and CHOP expression [2]: strongly induced both BiP and CHOP expression
- IC50 [3]: 400 nM
- rescue of cell proliferation with OA [4]: Near total rescue of cell proliferation

Structure (SMILES): CNC(=O)c1ccccc1OCC(=O)N1CCN(C(=O)c2ccccc2C(F)(F)F)CC1 [SSI-1, N-Methyl-2-(2-oxo-2-{4-[2-(trifluoromethyl)benzoyl]piperazin-1-yl}ethoxy)benzamide]
- luciferase activity [1, 10]: significant upregulation of luciferase activity
- BiP and CHOP expression [2]: strongly induced both BiP and CHOP expression
- rescue of cell proliferation with OA [4]: Near total rescue of cell proliferation

Structure (SMILES): O=C(Nc1ccc(OCc2ccccc2)nc1)N1CCN(C(=O)c2ccccc2C(F)(F)F)CC1 [SSI-2, 2-(benzyloxy)-5-{[hydroxy({4-[2-(trifluoromethyl)benzoyl]piperazin-1-yl})methyl]amino}-1,2-dihydropyridin-2-ylium-1-ide]
- reduction in cell proliferation [5]: approximately 20%
- luciferase activity [1, 10]: significant upregulation of luciferase activity
- BiP and CHOP expression [2]: strongly induced both BiP and CHOP expression
- kidney cancer cell proliferation [6]: reduced kidney cancer cell proliferation
- rescue of cell proliferation with OA [4]: Near total rescue of cell proliferation

Structure (SMILES): O=C(NCc1ccnc(OCc2ccccc2)c1)N1CCN(C(=O)c2ccccc2C(F)(F)F)CC1 [SSI-3]
- luciferase activity ([1]; ACHN cells): induced reversible luciferase activity
- BiP and CHOP expression [2]: strongly induced both BiP and CHOP expression
- rescue of cell proliferation with OA [4]: Near total rescue of cell proliferation

Structure (SMILES): CC(C)C[C@H](NC(=O)[C@H](Cc1ccccc1)NC(=O)c1cnccn1)B(O)O [bortezomib]
- EC50 [7]: low nanomolar dose range

Structure (SMILES): CC(C)C[C@H](NC(=O)[C@H](CCc1ccccc1)NC(=O)CN1CCOCC1)C(=O)N[C@@H](Cc1ccccc1)C(=O)N[C@@H](CC(C)C)C(=O)[C@@]1(C)CO1 [carfilzomib]
- EC50 [7]: low nanomolar dose range
- reduction in mean tumor burden as compared to the placebo control ([8]; MF-438 25 mg/kg oral once daily, carfilzomib 4 mg/kg i.p. twice weekly): 21%
- tumor response / mean tumor volume course ([8]; THJ16T xenograft): temporarily plateau
- adverse events ([8]; mice bearing THJ16T xenograft): Dehydration and acute inflammation
- survivin expression (IHC) ([8]; mouse, in vivo): induced survivin expression
- CD31 (IHC), tumor vascularization ([8]; versus placebo control): trend toward decreased CD31
- ki67 staining (IHC of resected tumors) ([8]; versus placebo control): trend of decreased ki67 staining
- cleaved caspase-3 (IHC) ([8]; versus placebo control, only the combination group achieved statistical significance): increased cleaved caspase-3
- HERPUD1 (IHC), marker for ER stress ([8]; versus placebo control, statistically significant combinatorial values): Increased HERPUD1
- PARP cleavage as compared to DMSO control [9]: significant PARP cleavage
